These are literature values, as cited in patent publication US7767860B2, “Substituted amino alcohols” (Auspex Pharmaceuticals, Inc, priority 2007, dated 2010).

The subject of this data set is Mycobacterium tuberculosis. Particulars: fold more potent; Hausler et al 2001; Stauffer et al 2002.

`CC[C@@H](CO)NCCN[C@@H](CC)CO` [Ethambutol, 2-[2-(1-hydroxybutan-2-ylamino)ethylamino]butan-1-ol]: the “potency of the (S,S)-enantiomer relative to the (R,R)-enantiomer and the meso-isomer” value was 200-500 times.
